Measurements as given in patent US8410157B2, “Fungicidal N-cycloalkyl-benzyl-thiocarboxamides or N-cycloalkyl-benzyl-N′-substituted-amidine derivatives” (Bayer Cropscience AG, priority 2007, dated 2013).

test: LogP (Table 1); assay type: physicochemical

LogP	Structure (SMILES)
3.92	Cc1nn(C)c(F)c1C(=S)N(Cc1cccc(C(F)(F)F)c1Cl)C1CC1 [Compound 3]
3.73	Cn1cc(C(=S)N(Cc2ccccc2I)C2CC2)c(Cl)n1 [Compound 51]
3.99	Cc1nn(C)c(F)c1C(=S)N(Cc1cc(Cl)ccc1Br)C1CC1 [Compound 22]
4.01	Cc1ccc(C(F)(F)F)c(CN(C(=S)c2cn(C)nc2C(F)F)C2CC2)c1 [Compound 32]
4.67	Cn1nc(C(=S)N(Cc2c(Cl)cccc2C(F)(F)F)C2CC2)c(C(F)(F)F)n1 [Compound 46]
3.83	Cn1cc(C(=S)N(Cc2c(Cl)cccc2C(F)(F)F)C2CC2)c(Cl)n1 [Compound 50]
4.9	Cn1cc(C(=S)N(Cc2c(Cl)cc(OC(F)(F)F)cc2Cl)C2CC2)c(C(F)(F)F)n1 [Compound 45]
4.09	Cn1cc(C(=S)N(Cc2ccc(C(F)(F)F)cc2Cl)C2CC2)c(C(F)F)n1 [Compound 35]
4.54	CCc1nn(C)c(F)c1C(=S)N(Cc1ccc(C(F)(F)F)cc1Cl)C1CC1 [Compound 28]
3.71	Cn1cc(C(=S)N(Cc2c(Cl)cccc2C(F)(F)F)C2CC2)c(C(F)F)n1 [Compound 34]
3.89	Cn1cc(C(=S)N(Cc2cc(Cl)ccc2Br)C2CC2)c(C(F)F)n1 [Compound 42]
4.06	Cc1ccc(C(F)(F)F)c(CN(C(=S)c2c(C)nn(C)c2F)C2CC2)c1 [Compound 16]
4.01	Cn1cc(C(=S)N(Cc2cc(Cl)ccc2C(F)(F)F)C2CC2)c(C(F)F)n1 [Compound 36]
4.01	Cn1cc(C(=S)N(Cc2cc3c(cc2Cl)OCO3)C2CC2)c(C(F)(F)F)c1 [Compound 44]
4.95	Cn1nc(C(=S)N(Cc2ccc(Cl)cc2Cl)C2CC2)c(C(F)(F)F)n1 [Compound 48]
4.94	Cn1nc(C(=S)N(Cc2cc(Cl)ccc2C(F)(F)F)C2CC2)c(C(F)(F)F)n1 [Compound 47]
4.14	Cc1nn(C)c(F)c1C(=S)N(Cc1ccc(C(F)(F)F)cc1Cl)C1CC1 [Compound 8]
3.96	Cc1nn(C)c(F)c1C(=S)N(Cc1cc(C(F)(F)F)ccc1Cl)C1CC1 [Compound 9]

More lines, now with the values behind:

Structure (SMILES)	LogP
Cc1nn(C)c(F)c1C(=S)N(Cc1ccc(Oc2ccccc2)cc1)C1CC1 [Compound 5]	4.06
Cc1nn(C)c(F)c1C(=S)N(C1CC1)C(C)c1cccc(OCc2ccccc2)c1 (racemic) [Compound 17]	4.36
Cc1nn(C)c(F)c1C(=S)N(Cc1ccccc1I)C1CC1 [Compound 12]	3.68
CCc1nn(C)cc1C(=S)N(Cc1ccccc1I)C1CC1 [Compound 53]	3.53
Cc1nn(C)c(F)c1C(=S)N(Cc1ccccc1C1CCCCC1)C1CC1 [Compound 11]	5.17
Cn1cc(C(=S)N(Cc2ccccc2Br)C2CC2)c(C(F)F)n1 [Compound 31]	3.46
Cc1nn(C)c(F)c1C(=S)N(Cc1ccc(Oc2ccc(Cl)cc2Cl)cc1)C1CC1 [Compound 18]	5
Cc1nn(C)c(F)c1C(=S)N(Cc1ccc(-c2ccc(F)c(Cl)c2)cc1F)C1CC1 [Compound 2]	4.73
Cn1cc(C(=S)N(Cc2cccc(OCc3ccccc3)c2)C2CC2)c(C(F)F)n1 [Compound 33]	4.06
Cc1nn(C)c(F)c1C(=S)N(Cc1ccccc1C(C)C)C1CC1 [Compound 14]	3.89
Cc1nn(C)c(F)c1C(=S)N(C1CC1)C(C)c1cc(Cl)ccc1Cl (racemic) [Compound 19]	4.04
Cc1nn(C)c(F)c1C(=S)N(Cc1c(Cl)cc(Cl)cc1Cl)C1CC1 [Compound 6]	4.42
CCCc1nn(C)cc1C(=S)N(C1CC1)C(C)c1ccc(Cl)cc1Cl (racemic) [Compound 56]	4.39
Cc1nn(C)c(F)c1C(=S)N(Cc1c(Br)cc(Br)cc1Br)C1CC1 [Compound 13]	4.86
Cn1cc(C(=S)N(Cc2ccccc2[Si](C)(C)C)C2CC2)c(C(F)F)n1 [Compound 37]	4.49
Cc1nn(C)c(F)c1C(=S)N(Cc1ccc(Oc2ccc(Cl)cc2)cc1)C1CC1 [Compound 1]	4.59
Cn1cc(C(=S)N(Cc2c(Cl)cc(Cl)cc2Cl)C2CC2)c(Cl)n1 [Compound 52]	4.49
Cc1nn(C)c(F)c1C(=S)N(C1CC1)C(C)c1ccc(Cl)cc1Cl (racemic) [Compound 15]	4.14
Cc1nn(C)c(F)c1C(=S)N(Cc1ccccc1[Si](C)(C)C)C1CC1 [Compound 7]	4.64
Cc1oc(C(C)(C)C)cc1C(=S)N(Cc1ccccc1I)C1CC1 [Compound 54]	5.95
Cn1cc(C(=S)N(Cc2c(Cl)cccc2Cl)C2CC2)c(I)n1 [Compound 55]	3.71
CCCC(c1ccc(Cl)cc1Cl)N(C(=S)c1c(C)nn(C)c1F)C1CC1 (racemic) [Compound 10]	4.97
CCc1cccc(CC)c1CN(C(=S)c1c(C)nn(C)c1F)C1CC1 [Compound 4]	4.39
CC(c1cc(Cl)cc(Cl)c1)N(C(=S)c1cn(C)nc1Cl)C1CC1 (racemic) [Compound 49]	4.49
